Data as given in patent publication US20260217735A1, “HETEROCYCLES AND USES THEREOF” (Kumquat Biosciences Inc., priority 2023, published 2026).
pIC50: −log10 of the molar value.

What was measured:
Format in all cases: biochemical
[1] = target: T1, KRAS WT (Homo sapiens, UniProt P01116); test: HTRF assay, wildtype KRAS interaction with SOS1; details: bins <500 nM / 500 nM to 1000 nM, read-out: Inhibition of KRAS WT (IC50)
T1 construct: made in house; host or cells: E. coli, e.g. BL21 (DE3)
Source text: (§1) This assay can be also used to assess a selective inhibition or reduction of signaling output of a mutant Ras protein relative to a wildtype, or relative to a different mutant Ras protein. For example, the equilibrium interaction of wildtype KRAS or K-Ras mutant (e.g., wildtype or a mutant thereof) with SOS1 (e.g., hSOS1) can be assessed as a proxy or an indication for the ability of a subject compound to bind and inhibit Ras protein. The HTRF assay detects from (i) a fluorescence resonance energy transfer (FRET) donor (e.g., antiGST-Europium) that is bound to GST-tagged K-Ras mutant to (ii) a FRET acceptor (e.g., anti-6His-XL665) bound to a His-tagged hSOSL1.
(§2) The assay buffer can contain ~5 mM HEPES pH 7.4, ~150 mM NaCl, ~1 mM DTT, 0.05% BSA and 0.0025% (v/v) Igepal. A Ras working solution is prepared in an assay buffer containing typically a suitable amount of the protein construct (e.g., GST-tagged K-Ras mutant) and the FRET donor (e.g., antiGST-Eu(K) from Cisbio, France). A SOS1 working solution is prepared in an assay buffer containing suitable amount of the protein construct (e.g., His-hSOS1) and the FRET acceptor (e.g., anti-6His-XL665 from Cisbio, France). A suitable amount of the protein construct will depend on the range of activity or range of IC50 values being detected or under investigation. For detecting an IC50 within a range of 500 nM, the protein constructs of the same range of molarity can be utilized.
(§3) A fixed volume of DMSO with or without test compound is transferred into a 384-well plate. Ras working solution is added to all wells of the test plate. SOS1 working solution is added to all wells except for those that are subsequently filled with inhibitor control solution. Upon incubation for about 10 minutes or longer, the fluorescence is measured with a M1000Pro plate reader (Tecan) using HTRF detection (excitation 337 nm, emission 1: 620 nm, emission 2: 665 nm). Compounds are tested in duplicate at different concentrations (for example, 10 μM, 2.5 μM, 0.63 μM, 0.16 μM, 0.04 μM, 0.01 μM test compound). The ratiometric data (i.e., emission 2 divided by emission 1) is used to calculate IC50 values against Ras using GraphPad Prism (GraphPad software). Signaling output measured in terms of IC50 values can be obtained and a ratio of IC50 against one mutant relative to another mutant can be calculated. For instance, a selective reduction of K-Ras G12S signaling output can be evidenced by a ratio greater than one. In particular, a selective reduction of K-Ras G12S signaling relative to K-Ras WT signaling is evidenced if the ratio of IC50 (against K-Ras WT) to IC50 (against K-Ras G12S) is greater than 1.

[2] = target: T2, KRAS G12S (Homo sapiens, UniProt P01116, G12S); test: HTRF assay, KRAS G12S interaction with SOS1; details: bins <500 nM / 500 nM to 1000 nM, read-out: Inhibition of KRAS G12S (IC50)
T2 construct: made in house; host or cells: E. coli, e.g. BL21 (DE3)
T2 sequence (P01116 1-188 isoform P01116-2 G12S): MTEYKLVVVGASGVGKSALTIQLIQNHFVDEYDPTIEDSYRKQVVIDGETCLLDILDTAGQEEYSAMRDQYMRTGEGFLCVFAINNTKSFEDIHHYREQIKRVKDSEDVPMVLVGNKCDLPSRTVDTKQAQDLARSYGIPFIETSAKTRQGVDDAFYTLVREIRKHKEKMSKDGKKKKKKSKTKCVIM
Source text: as §1, §2, §3

[3] = target: T3, KRAS G12D (Homo sapiens, UniProt P01116, G12D); test: HTRF assay, KRAS G12D interaction with SOS1; details: bins <500 nM / 500 nM to 1000 nM, read-out: Inhibition of KRAS G12D (IC50)
T3 construct: made in house; host or cells: E. coli, e.g. BL21 (DE3)
T3 sequence (P01116 1-188 isoform P01116-2 G12D): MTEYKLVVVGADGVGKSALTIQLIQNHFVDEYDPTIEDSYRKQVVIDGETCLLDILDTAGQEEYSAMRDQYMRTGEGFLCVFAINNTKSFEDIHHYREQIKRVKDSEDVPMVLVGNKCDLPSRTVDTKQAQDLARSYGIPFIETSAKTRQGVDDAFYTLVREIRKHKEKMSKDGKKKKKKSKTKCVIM
Source text: as §1, §2, §3

[4] = target: T4, KRAS G12V (Homo sapiens, UniProt P01116, G12V); test: HTRF assay, KRAS G12V interaction with SOS1; details: bins <500 nM / 500 nM to 1000 nM, read-out: Inhibition of KRAS G12V (IC50)
T4 construct: made in house; host or cells: E. coli, e.g. BL21 (DE3)
T4 sequence (P01116 1-188 isoform P01116-2 G12V): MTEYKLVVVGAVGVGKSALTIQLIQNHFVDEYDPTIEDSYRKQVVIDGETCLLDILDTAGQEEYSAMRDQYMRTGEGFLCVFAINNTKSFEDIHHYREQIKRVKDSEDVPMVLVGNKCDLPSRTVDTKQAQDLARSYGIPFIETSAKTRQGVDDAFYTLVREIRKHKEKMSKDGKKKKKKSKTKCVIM
Source text: as §1, §2, §3

Measured: pIC50

T1 sequence (P01116 1-188 isoform P01116-2): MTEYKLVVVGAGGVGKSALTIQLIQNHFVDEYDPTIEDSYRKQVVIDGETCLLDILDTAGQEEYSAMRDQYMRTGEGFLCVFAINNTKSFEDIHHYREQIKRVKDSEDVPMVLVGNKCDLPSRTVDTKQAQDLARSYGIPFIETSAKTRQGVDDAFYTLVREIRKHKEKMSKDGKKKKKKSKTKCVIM

CCN(c1nc(OC[C@@]23CCCN2C[C@H](F)C3)nc2c(F)c(-c3ccc(F)c4sc(N)c(C#N)c34)c(C3CC3)cc12)[C@@H]1CCN(C(=O)n2cc(C)nc2C)[C@@H]1C (atropisomer, axis not shown; (aS)) [Compound 190, (S)-2-amino-4-(6-cyclopropyl-4-(((2R,3R)-1-(2,4-dimethyl-1H-imidazole-1-carbonyl)-2-methylpyrrolidin-3-yl)(ethyl)amino)-8-fluoro-2-(((2R,7aS)-2-fluorotetrahydro-1H-pyrrolizin-7a(5H)-yl)methoxy)quinazolin-7-yl)-7-fluorobenzo[b]thiophene-3-carbonitrile]
> 6.30: all assays above

CN(c1nc(OC[C@@]23CCCN2C[C@H](F)C3)nc2c(F)c(-c3ccc(F)c4sc(N)c(C#N)c34)c(Cl)cc12)C1CN(C(=O)n2ccnc2)CC1F (single isomer, unassigned) [Compound 191]
> 6.30: all assays above

Cc1cn(C(=O)N2CC[C@@H](N(C)c3nc(OC[C@@]45CCCN4C[C@H](F)C5)nc4c(F)c(-c5ccc(F)c6sc(N)c(C#N)c56)c(Cl)cc34)[C@H]2C)c(C)n1 [Compound 105, 2-amino-4-(6-chloro-4-(((2R,3R)-1-(2,4-dimethyl-1H-imidazole-1-carbonyl)-2-methylpyrrolidin-3-yl)(methyl)amino)-8-fluoro-2-(((2R,7aS)-2-fluorotetrahydro-1H-pyrrolizin-7a(5H)-yl)methoxy)quinazolin-7-yl)-7-fluorobenzo[b]thiophene-3-carbonitrile]
> 6.30: all assays above

CCN(c1nc(OC[C@@]23CCCN2C[C@H](F)C3)nc2c(F)c(-c3cccc4sc(N)c(C#N)c34)c(Cl)cc12)[C@@H]1CCN(C(=O)n2cc(C#N)nc2C)[C@@H]1C [Compound 113, 1-((2R,3R)-3-((7-(2-amino-3-cyanobenzo[b]thiophen-4-yl)-6-chloro-8-fluoro-2-(((2R,7aS)-2-fluorotetrahydro-1H-pyrrolizin-7a(5H)-yl)methoxy)quinazolin-4-yl)(ethyl)amino)-2-methylpyrrolidine-1-carbonyl)-2-methyl-1H-imidazole-4-carbonitrile]
> 6.30: all assays above

Cc1ncn(C(=O)N2C[C@H]3[C@@H]2CCCN3c2nc(OC[C@]34CCCN3C[C@@H](F)C4)nc3c(F)c(-c4ccc(F)c5sc(N)c(C#N)c45)c(Cl)cc23)c1C [Compound 129, 2-amino-4-(6-chloro-4-((1S,6S)-7-(4,5-dimethyl-1H-imidazole-1-carbonyl)-2,7-diazabicyclo[4.2.0]octan-2-yl)-8-fluoro-2-(((2S,7aR)-2-fluorotetrahydro-1H-pyrrolizin-7a(5H)-yl)methoxy)quinazolin-7-yl)-7-fluorobenzo[b]thiophene-3-carbonitrile]
> 6.30: all assays above

CCN(c1nc(OC[C@@]23CCCN2C[C@H](F)C3)nc2c(F)c(-c3ccc(F)c4sc(N)c(C#N)c34)c(Cl)cc12)[C@@H]1CCN(C(=O)n2cnc3c2CCC3)[C@@H]1C [Compound 132, 2-amino-4-(6-chloro-4-(ethyl((2R,3R)-2-methyl-1-(1,4,5,6-tetrahydrocyclopenta[d]imidazole-1-carbonyl)pyrrolidin-3-yl)amino)-8-fluoro-2-(((2R,7aS)-2-fluorotetrahydro-1H-pyrrolizin-7a(5H)-yl)methoxy)quinazolin-7-yl)-7-fluorobenzo[b]thiophene-3-carbonitrile]
> 6.30: all assays above

CC1CC(N(C)c2nc(OC[C@@]34CCCN3C[C@H](F)C4)nc3c(F)c(-c4ccc(F)c5sc(N)c(C#N)c45)c(Cl)cc23)CN1C(=O)n1cnc(F)n1 (stereo partly drawn) [Compound 146, 2-amino-4-(6-chloro-8-fluoro-4-((1-(3-fluoro-1H-1,2,4-triazole-1-carbonyl)-5-methylpyrrolidin-3-yl)(methyl)amino)-2-(((2R,7aS)-2-fluorotetrahydro-1H-pyrrolizin-7a(5H)-yl)methoxy)quinazolin-7-yl)-7-fluorobenzo[b]thiophene-3-carbonitrile]
> 6.30: all assays above

CC1CC(N(C)c2nc(OC[C@@]34CCCN3C[C@H](F)C4)nc3c(F)c(-c4ccc(F)c5sc(N)c(C#N)c45)c(Cl)cc23)CCN1C(=O)n1ccnc1 (stereo partly drawn) [Compound 153, 4-(4-((1-(1H-imidazole-1-carbonyl)-2-methylpiperidin-4-yl)(methyl)amino)-6-chloro-8-fluoro-2-(((2R,7aS)-2-fluorotetrahydro-1H-pyrrolizin-7a(5H)-yl)methoxy)quinazolin-7-yl)-2-amino-7-fluorobenzo[b]thiophene-3-carbonitrile]
> 6.30: [1] | [2] | [4]

COCC1([C@H]2N(C(=O)n3cnc(C)c3)C[C@]23CCCCN(c2nc(OC[C@@]45CCCN4C[C@H](F)C5)nc4c(F)c(-c5ccc(F)c6sc(N)c(C#N)c56)c(Cl)cc24)C3)CC1 [Compound 203, 2-amino-4-(6-chloro-8-fluoro-2-(((2R,7aS)-2-fluorotetrahydro-1H-pyrrolizin-7a(5H)-yl)methoxy)-4-((1S,4R)-1-(1-(methoxymethyl)cyclopropyl)-2-(4-methyl-1H-imidazole-1-carbonyl)-2,6-diazaspiro[3.6]decan-6-yl)quinazolin-7-yl)-7-fluorobenzo[b]thiophene-3-carbonitrile]
> 6.30: all assays above

Cc1ncn(C(=O)N2CC3CCCN(c4nc(OC[C@@]56CCCN5C[C@H](F)C6)nc5c(F)c(-c6ccc(F)c7sc(N)c(C#N)c67)c(Cl)cc45)C3C2)c1C (stereo partly drawn) [Compound 206, 2-amino-4-(6-chloro-4-(6-(4,5-dimethyl-1H-imidazole-1-carbonyl)octahydro-1H-pyrrolo[3,4-b]pyridin-1-yl)-8-fluoro-2-(((2R,7aS)-2-fluorotetrahydro-1H-pyrrolizin-7a(5H)-yl)methoxy)quinazolin-7-yl)-7-fluorobenzo[b]thiophene-3-carbonitrile]
> 6.30: all assays above

Cc1cn(C(=O)N2C[C@]3(CCCCN(c4nc(OC[C@@]56CCCN5C[C@H](F)C6)nc5c(F)c(-c6ccc(F)c7sc(N)c(C#N)c67)c(Cl)cc45)C3)[C@H]2C2(C)CC2)cn1 [Compound 207, 2-amino-4-(6-chloro-8-fluoro-2-(((2R,7aS)-2-fluorotetrahydro-1H-pyrrolizin-7a(5H)-yl)methoxy)-4-((1R,4R)-2-(4-methyl-1H-imidazole-1-carbonyl)-1-(1-methylcyclopropyl)-2,6-diazaspiro[3.6]decan-6-yl)quinazolin-7-yl)-7-fluorobenzo[b]thiophene-3-carbonitrile]
> 6.30: all assays above
